We go through 4 compounds from BindingDB's records for patent US10626113 (Columbia University, 2020).

The assay has as its target cGMP-specific 3',5'-cyclic phosphodiesterase (Homo sapiens, UniProt O76074). Description: PDE5 Inhibition Assay. As to the method:
Test compounds were supplied as liquid solutions of 10 mM concentration in DMSO. Sildenafil, used as a standard was dissolved in DMSO. […] 0.1 ng of enzyme was used per reaction, and the substrate was 100 nM FAM-cGMP.Assay conditions: A series of dilutions of the test compounds were prepared with 10% DMSO in assay buffer and 5 μl of the dilution was added to a 50 μl reaction so that the final concentration of DMSO is 1% in all of reactions. The enzymatic reactions were conducted at room temperature for 60 minutes in a 50 μl mixture containing PDE assay buffer, 100 nM FAM-cAMP or 100 nM FAM-cGMP, a PDE enzyme, and the test compound. After the enzymatic reaction, 100 μl of a binding solution (1:100 dilution of the binding agent with the binding agent diluent) was added to each reaction and the reaction was performed at room temperature for 60 minutes. […] Fluorescence intensity is converted to fluorescence polarization using the Tecan Magellan6 software. The fluorescence polarization data were analyzed using the computer software, Graphpad Prism. The fluorescence polarization (FPt) in absence of the compound in each data set was defined as 100% activity. In the absence of PDE and the compound, the value of fluorescent polarization (FPb) in each data set was defined as 0% activity. The percent activity in the presence of the compound was calculated according to the following equation: % activity=(FP−FPb)/(FPt−FPb)×100%, where FP=the fluorescence polarization in the presence of the compound.

The structures appear in SMILES notation.

In turn, `COc1cc(Nc2c3c(nc4ccc(C#N)cc24)CCN(C(C)=O)C3)ccc1Cl` [US10899756, Compound T] showed an IC50 of 425 nM.

Consider `COc1ccc(CCNc2c3c(nc4ccc(C#N)cc24)CCN(C(C)=O)C3)cc1Cl` [US10899756, Compound W], for which the midpoint of inhibition, the IC50, lay at 10.6 nM.

`COc1ccc(Nc2c3c(nc4ccc(C#N)cc24)CCN(C(C)=O)C3)cc1Cl` [US10899756, Compound S] displayed an IC50 of 593 nM.

As for `COc1ccc(C(C)Nc2c3c(nc4ccc(C#N)cc24)CCN(C(C)=O)C3)cc1Cl` (centres undefined) [US10899756, Compound V], half-maximal inhibition (IC50) was put at 26.9 nM.
